The values below come from patent publication US12293809B2, “Workflow for generating compounds with biological activity against a specific biological target” (INSILICO MEDICINE IP LIMITED, priority 2019, dated 2025).

Where two headings read alike, the source gives them in different places.

The subject of data set [1] is CTGF production in LX-2 cells. Nature of the data set: LX-2 fibrosis assay, TGF-β stimulated (Western blot). The class given is cell-based, human. Here is the method:
(§1) Collagen α1, α-SMA, CTGF and GAPDH were traced using Western blot analysis. DMSO and SB-525334 were used as negative and positive controls, respectively.
(§2) Human hepatic stellate cells LX-2 were grown in DMEM (Invitrogen, 11960) supplied with 1% MEM Non-Essential Amino Acids (Invitrogen, 11140-050), 2% fetal bovine serum (Hyclone, SV30087.03), Penicillin (100 U/mL)-streptomycin (100 μg/mL) (Millipore, TMS-AB2-C) and 2 mM L-Glutamine (Invitrogen, 25030-001). After the cells grew in 12-well plates for 24 h, the cell culture medium was changed to the same as above except using 0.4% fetal bovine serum. After 20 h growth in the reduced serum medium, the cells were treated with indicated doses of compounds for 30 minutes. Subsequently, the cells were stimulated with 4 ng/mL TGF-β (R&D Systems, 240-B-002) for 48 h. The cells were rinsed twice with DPBS before being harvested with 100 μL RIPA buffer (Sigma, R0278) supplemented with protease inhibitor cocktail (Roche, 04693132001) at 4° C. The total protein in each sample was quantified using BCA Protein Assay Kit (Pierce™, 23227) and equal amount of total protein of each sample was subject to Western blot analysis. Antibodies used were mouse anti-α-Actin (SPM332) (sc-365970), mouse anti-CTGF (E5) (sc-365970), and mouse anti-collagen al (3G3) (sc-293182), from Santa Cruz Biotechnologies; and mouse anti-GAPDH (6C5) (EMD Millipore, MAB374).
(In general: Immunoblotting shows a protein as a band on a membrane.)

For data set [2], the system named is collagen α1 production in LX-2 cells. The description is as above. The class given is cell-based, human. As to the method: as §1, §2
The subject of another data set is LX-2 cells. The data set is described as follows: Cytotoxicity, CellTiter-Glo cell viability assay. The class given is cell-based, human. The following applies: 72 h. Here is the method: LX-2 cells were seeded into 96 well plates in the presence of a compound and allowed to grow for 72 h before CellTiter-Glo® Luminescent Cell Viability Assay was carried out according the manufacturer's instruction.
A general note: ATP-based viability assays read luminescence as a measure of living cells.

Data set [3] concerns α-actin expression in MRC-5 cells. The data set is described as follows: MRC-5 fibrosis assay, TGF-β stimulated (Western blot). It is filed as cell-based. As to the method:
(§3) After 20 h growth in the reduced serum medium, the cells were treated with indicated doses of compounds for 30 minutes. Subsequently, the cells were stimulated with 10 ng/mL TGF-β (R&D Systems, 240-B-002) for 48 or 72 hours.

The subject of data set [4] is CTGF expression in MRC-5 cells. The data set is described as above. It is filed as cell-based. As to the method:
as §3

The target in the next data set is T1, hDDR2 (Homo sapiens, UniProt Q16832).
T1 construct: purchased Eurofins
T1 sequence (Q16832 22-855): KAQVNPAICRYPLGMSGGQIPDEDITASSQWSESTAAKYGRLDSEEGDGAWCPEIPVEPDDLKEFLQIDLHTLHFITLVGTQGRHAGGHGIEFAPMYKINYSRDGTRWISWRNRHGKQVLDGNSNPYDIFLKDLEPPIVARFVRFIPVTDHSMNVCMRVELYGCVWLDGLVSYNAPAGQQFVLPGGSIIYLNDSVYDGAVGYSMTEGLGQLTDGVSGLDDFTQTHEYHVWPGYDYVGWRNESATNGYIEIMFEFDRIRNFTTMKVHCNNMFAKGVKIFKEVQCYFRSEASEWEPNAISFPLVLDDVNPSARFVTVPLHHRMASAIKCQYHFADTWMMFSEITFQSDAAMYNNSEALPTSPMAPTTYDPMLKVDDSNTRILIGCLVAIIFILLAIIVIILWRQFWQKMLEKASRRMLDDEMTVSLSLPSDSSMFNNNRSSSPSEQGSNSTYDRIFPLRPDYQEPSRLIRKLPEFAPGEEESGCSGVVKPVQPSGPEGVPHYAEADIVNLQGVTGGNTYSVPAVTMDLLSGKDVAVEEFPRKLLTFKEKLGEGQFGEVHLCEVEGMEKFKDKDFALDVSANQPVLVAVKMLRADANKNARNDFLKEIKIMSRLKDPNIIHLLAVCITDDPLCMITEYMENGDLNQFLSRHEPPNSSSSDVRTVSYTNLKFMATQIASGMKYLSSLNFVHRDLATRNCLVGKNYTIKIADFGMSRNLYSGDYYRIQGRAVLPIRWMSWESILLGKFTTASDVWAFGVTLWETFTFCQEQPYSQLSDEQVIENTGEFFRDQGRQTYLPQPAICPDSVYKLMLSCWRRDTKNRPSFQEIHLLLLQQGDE
Nature of the data set: KinaseProfiler radiometric biochemical kinase assay (Eurofins). Here is the method:
The experimental procedures were performed by Eurofins. The activity of the molecules against hDDR1 and hDDR2 kinases was assessed using KinaseProfiler^67. […] The enzymatic reaction processed in the presence of Mg^2+ cations and ATP at room temperature for 40 minutes and terminated by addition of phosphoric acid. […] All the compounds were prepared in 100% DMSO. […] The biological evaluation of selectivity against non-target kinases was performed in Dundee Eurofins, using Scan Max Delta Panel [10 μM ATP] KinaseProfiler^68.

The compound `O=C(Nc1cccc(C(=O)N2CCN(c3ccnc4[nH]ccc34)C2)c1)c1cccc(C(F)(F)F)c1` [Compound 2] gave a CTGF production prevented in data set [1] (14 nM) of 43%. Also, the 50% inhibitory concentration (IC50) in data set [2] (LX-2 cells, read-out: IC50, collagen assay) was more than 10 µM; at hDDR2 (read-out: IC50 towards DDR2 kinase) it was 0.076 µM. In the data set with LX-2 cells, this compound gave a CC50 of 7.3 µM. Further, in data set [3] (MRC-5), the “concentration of maximum inhibition of α-actin expression” value was determined as 0.37 µM. The “maximum effect on α-actin expression” value in data set [3] (at 0.37 μM) came to 1.5 fold. Further, the “concentration of highest activity in CTGF assay (close to negative control)” value in data set [4] (MRC-5) is 0.041 µM. The “SI (selectivity index) DDR2 vs DDR1” value at hDDR2 was found to be 3.6.
With `Cc1ccc2c(Nc3cccc(C(F)(F)F)c3)noc2c1C#Cc1cnc2cccnn12` [Compound 1], the “effect in CTGF assay” value in data set [1] (LX-2 cells) is on record as “did not show the inhibition effect”. In addition, in data set [2] (TGF-β stimulated LX-2 cells, normalized to GAPDH, read-out: IC50, collagen production), the IC50 came to 0.013 µM. Besides, the CC50 with LX-2 cells came to 3.3 µM. Also, the “dose dependence of effect on α-actin expression” value in data set [3] (MRC-5) is recorded as “robust dose-dependent effect”. Moreover, the “effect on CTGF expression” value in data set [4] (all the concentrations used) was “no inhibition potency”. Besides, at hDDR2 (DDR2 vs DDR1), the “activity towards DDR2 weaker than for DDR1” value is on record as 23 times.

A word on the IC50: it is the concentration that inhibits the measured activity by half. For orientation: CC50 means the concentration that lowers cell viability or growth by half. Read a high CC50 as better tolerance by the cells.
